Legend:
aged-impaired (AI) rats = test: Radial Arm Maze (RAM) behavioral task, spatial memory retention; assay type: in vivo, rat; conditions: 3 mg/kg i.p., two-hour delay RAM
Protocol: The effects of methyl 3,5-diphenylpyridazine-4-carboxylate on the in vivo spatial memory retention of aged-impaired (AI) rats were assessed in a Radial Arm Maze (RAM) behavioral task using vehicle control and four different dosage levels of methyl 3,5-diphenylpyridazine-4-carboxylate (0.1 mg/kg, 0.3 mg/kg, 1 mg/kg and 3 mg/kg, ip). RAM behavioral tasks were performed on eight AI rats. All five treatment conditions (vehicle and four dosage levels) were tested on all eight rats.
The RAM apparatus used consisted of eight equidistantly-spaced arms. An elevated maze arm (7 cm width×75 cm length) projected from each facet of an octagonal center platform (30 cm diameter, 51.5 cm height). Clear side walls on the arms were 10 cm high and were angled at 65° to form a trough. A food well (4 cm diameter, 2 cm deep) was located at the distal end of each arm. Froot Loops™ (Kellogg Company) were used as rewards. Blocks constructed of Plexiglas™ (30 cm height×12 cm width) could be positioned to prevent entry to any arm. Numerous extra maze cues surrounding the apparatus were also provided.
The AI rats were initially subjected to a pre-training test (Chappell et al. Neuropharmacology 37: 481-487, 1998). The pre-training test consisted of a habituation phase (4 days), a training phase on the standard win-shift task (18 days) and another training phase (14 days) in which a brief delay was imposed between presentation of a subset of arms designated by the experimenter (e.g., 5 arms available and 3 arms blocked) and completion of the eight-arm win-shift task (i.e., with all eight arms available).
In the habituation phase, rats were familiarized to the maze for an 8-minute session on four consecutive days. In each of these sessions, food rewards were scattered on the RAM, initially on the center platform and arms and then progressively confined to the arms. After this habituation phase, a standard training protocol was used, in which a food pellet was located at the end of each arm. Rats received one trial each day for 18 days. Each daily trial terminated when all eight food pellets had been obtained or when either 16 choices were made or 15 minutes had elapsed. After completion of this training phase, a second training phase was carried out in which the memory demand was increased by imposing a brief delay during the trial. At the beginning of each trial, three arms of the eight-arm maze were blocked. Rats were allowed to obtain food on the five arms to which access was permitted during this initial “information phase” of the trial. Rats were then removed from the maze for 60 seconds, during which time the barriers on the maze were removed, thus allowing access to all eight arms. […]

α5-containing GABAA R = target: T1, α5-containing GABAA R (Homo sapiens, UniProt P18507+P31644); conditions: at GABA EC20; van Niel et al.; cited from earlier work
T1 sequence (P31644 32-462): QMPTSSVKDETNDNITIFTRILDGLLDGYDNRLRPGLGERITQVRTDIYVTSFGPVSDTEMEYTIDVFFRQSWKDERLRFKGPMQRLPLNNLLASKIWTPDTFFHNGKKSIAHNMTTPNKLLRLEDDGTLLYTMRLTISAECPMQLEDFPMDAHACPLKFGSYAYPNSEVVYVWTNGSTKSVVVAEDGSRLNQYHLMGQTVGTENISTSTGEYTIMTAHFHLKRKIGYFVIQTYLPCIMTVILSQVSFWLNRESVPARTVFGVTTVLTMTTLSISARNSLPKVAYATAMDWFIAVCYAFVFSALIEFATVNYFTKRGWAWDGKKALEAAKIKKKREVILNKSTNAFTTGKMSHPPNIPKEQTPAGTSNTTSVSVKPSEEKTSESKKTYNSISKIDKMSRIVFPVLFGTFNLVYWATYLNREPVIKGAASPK
T1 sequence (P28472 26-473 partner): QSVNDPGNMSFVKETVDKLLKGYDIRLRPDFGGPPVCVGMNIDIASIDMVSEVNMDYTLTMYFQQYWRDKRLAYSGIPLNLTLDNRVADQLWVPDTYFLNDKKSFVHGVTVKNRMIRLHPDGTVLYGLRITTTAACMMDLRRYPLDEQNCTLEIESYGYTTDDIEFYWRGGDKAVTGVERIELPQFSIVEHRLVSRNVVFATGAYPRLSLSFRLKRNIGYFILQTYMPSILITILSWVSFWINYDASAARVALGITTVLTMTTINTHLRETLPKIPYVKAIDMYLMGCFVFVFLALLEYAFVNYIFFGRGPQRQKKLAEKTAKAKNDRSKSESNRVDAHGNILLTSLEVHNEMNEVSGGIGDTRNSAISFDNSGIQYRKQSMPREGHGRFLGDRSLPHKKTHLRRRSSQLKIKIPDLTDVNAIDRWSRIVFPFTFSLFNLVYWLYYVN
T1 sequence (P18507 40-467 limits assumed): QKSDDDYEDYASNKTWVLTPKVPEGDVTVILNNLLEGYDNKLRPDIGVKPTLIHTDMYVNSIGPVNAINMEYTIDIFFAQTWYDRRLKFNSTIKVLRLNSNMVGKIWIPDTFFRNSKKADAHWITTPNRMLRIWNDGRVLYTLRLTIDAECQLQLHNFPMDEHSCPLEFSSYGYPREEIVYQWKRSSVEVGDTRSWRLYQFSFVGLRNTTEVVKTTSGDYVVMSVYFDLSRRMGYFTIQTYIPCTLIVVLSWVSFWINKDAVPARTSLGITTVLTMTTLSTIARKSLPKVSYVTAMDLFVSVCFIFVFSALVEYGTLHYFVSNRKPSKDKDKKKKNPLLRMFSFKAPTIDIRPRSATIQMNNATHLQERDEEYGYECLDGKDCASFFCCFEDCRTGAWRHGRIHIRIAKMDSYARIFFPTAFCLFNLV

## COC(=O)c1c(-c2ccccc2)cnnc1-c1ccccc1 [methyl 3,5-diphenylpyridazine-4-carboxylate]
aged-impaired (AI) rats
  average no. of errors ± SEM in retention test: 1.31±0.40
  memory performance relative to vehicle control: significantly improved memory performance
α5-containing GABAA R
  α5 in vitro efficacy (EC20): +27

Reference: patent US9145372B2, “Pyridazine derivatives, compositions and methods for treating cognitive impairment” (AGENEBIO, INC., priority 2010, dated 2015)
